Results reported in publication PMC4474691, “Leukemia-Associated Mutations in Nucleophosmin Alter Recognition by CRM1: Molecular Basis of Aberrant Transport” (PLoS ONE, 2015).
Each block holds one molecule with its values, some of them ahead of it. *1 amine or outer side, *2 acyl side, *3 side chain or, on linkers, in order; H or OH if unused. Where a SMILES comes first, the peptide text is derived from it. Bridges are numbered along the chain shown (N, C = ends). Roman numbers before positions name the chains, in order. Where no end group is shown, it is not given here. [ ]: non-standard residue; d: D form. Actinocin(9to1) = Cc1c2oc3c(C)ccc(C(=O)[*:1])c3nc-2c(C(=O)[*:2])c(N)c1=O; NMeV = CN[C@H](C(=O)O)C(C)C; Sar = CNCC(=O)O

Assays:
nuclear export = conditions: in vivo nuclear export assay; cited from earlier work
Source text: Two sequence motifs in the core domain of NPM (residues 42–61 and 94–102) (Fig 1) have been investigated as candidate NESs. In addition, we have detected a further putative NES in the C-terminal region (see below). However, it is still unclear to what extent any of these sequences represents NPM physiological NESs. […] It is therefore not surprising that NPM deregulation is associated to cancer. NPM is overexpressed in several solid tumors (such as gastric, colon, ovarian, prostate cancer). In addition, small insertions and translocations affecting NPM1 gene, encoding NPM, are characteristic of certain hematological disorders. In fact, NPM1 is the most frequently mutated gene in adult acute myeloid leukemia (AML). […] The higher affinity of mutE(NES) for CRM1^HA is consistent with its stronger export activity previously observed using in vivo nuclear export assays. […] Thus, the ranking of in vitro CRM1^HA affinity (PKI(NES) (KD 579 n ...

CRM1^HA [1] = target: T1, CRM1^HA (Mus musculus, UniProt Q6P5F9, L431A/V430A/V432A); experiment: Isothermal titration calorimetry, CRM1^HA / NES; assay type: binding; conditions: for binding response: titrated onto CRM1^HA, result in words
T1 construct: His-ZZ (cleaved yes); made in house; host or cells: Escherichia coli BL21-CodonPlus (DE3)
T1 sequence (Q6P5F9 1-1062 V430A/L431A/V432A limits assumed): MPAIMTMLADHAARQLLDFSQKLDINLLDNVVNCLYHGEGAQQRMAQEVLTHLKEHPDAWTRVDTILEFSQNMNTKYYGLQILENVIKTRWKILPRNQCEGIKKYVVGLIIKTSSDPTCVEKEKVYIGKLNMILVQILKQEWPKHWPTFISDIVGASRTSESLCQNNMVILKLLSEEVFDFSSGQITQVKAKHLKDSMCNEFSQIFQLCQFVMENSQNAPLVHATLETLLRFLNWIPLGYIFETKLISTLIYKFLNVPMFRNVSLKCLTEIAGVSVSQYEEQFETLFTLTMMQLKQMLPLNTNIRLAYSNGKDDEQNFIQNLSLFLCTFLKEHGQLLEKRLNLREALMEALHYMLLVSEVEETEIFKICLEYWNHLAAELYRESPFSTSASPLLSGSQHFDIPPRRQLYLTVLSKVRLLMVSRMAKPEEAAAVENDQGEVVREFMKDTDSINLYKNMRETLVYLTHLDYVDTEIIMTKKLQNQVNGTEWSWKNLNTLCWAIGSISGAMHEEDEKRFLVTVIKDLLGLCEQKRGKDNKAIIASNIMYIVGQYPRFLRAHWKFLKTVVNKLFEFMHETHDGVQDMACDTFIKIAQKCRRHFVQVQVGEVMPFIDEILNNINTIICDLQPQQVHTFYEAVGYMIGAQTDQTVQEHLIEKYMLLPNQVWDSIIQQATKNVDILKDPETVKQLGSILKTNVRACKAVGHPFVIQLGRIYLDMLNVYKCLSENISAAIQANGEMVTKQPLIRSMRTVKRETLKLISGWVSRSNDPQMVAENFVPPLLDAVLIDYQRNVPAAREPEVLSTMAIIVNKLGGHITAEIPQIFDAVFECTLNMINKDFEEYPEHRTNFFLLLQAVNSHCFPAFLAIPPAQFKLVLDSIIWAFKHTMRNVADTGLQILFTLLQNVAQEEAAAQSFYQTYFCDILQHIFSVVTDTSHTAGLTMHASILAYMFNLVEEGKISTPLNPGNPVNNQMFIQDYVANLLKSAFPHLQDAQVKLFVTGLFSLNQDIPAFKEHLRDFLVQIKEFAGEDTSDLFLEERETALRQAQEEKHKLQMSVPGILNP
Method: Isothermal titration calorimetry (ITC)
ITC measurements were carried out using a VIP-ITC MicroCalorimeter (MicroCal, Inc., Northampton, MA). TFP and YFP constructs, as well as CRM1^HA, were dialyzed in a buffer containing 20 mM HEPES, pH 7.4, 50 mM NaCl, 1 mM TCEP, 1 mM MgCl2, and degassed prior to the experiment. Untagged peptides (AS: QDLCLAVEEVSLRK, AL: EAIQDLCLAVEEVSLRK, ES: QDLWQSLAQVSLRK and EL: EAIQDLWQSLAQVSLRK), N-acetylated and 95% pure, were purchased from Proteogenix (Schiltigheim, France) and resuspended in the ITC buffer. Measurements were performed at 20°C. TFP-NES, YFP-NES or NES peptides at 35–180 μM were titrated onto CRM1^HA at 2–14 μM. Injections of 6 μL were performed at 320 seconds interval (the first injection always was of 1 μL and is not considered in data analysis). To determine the thermodynamic parameters of NPM / importin interaction, importin α, importin Δα or importin α/β at 45–60 μM were titrated onto NPM (1–1.2 μM pentamer) in 50 mM Tris/HCl, pH 7.5, 100 mM NaCl, 2 mM TCEP, and 10% glycerol. […] “Reverse” titrations, where 20–30 μM NPM was titrated onto 7–10 μM of the different importins were also performed and yielded similar results.
The reaction heat of each injection is related to the calorimetric enthalpy of binding, ΔH^0. The binding isotherms, ΔH^0 vs. molar ratio, were analyzed with an independent binding sites model using MicroCal Origin software. The fit of the binding curve yields the binding constant KA (KD = 1/KA) and the enthalpy ΔH^0 of the binding reaction. The Gibbs free energy of binding ΔG^0 and the entropy ΔS^0 are determined from the basic thermodynamic expressions: ΔG^0 = -RTlnKA = ΔH^0−TΔS^0, where R and T are the gas constant and the absolute temperature, respectively.
Fig 5 Analysis of CRM1^HA/TFP-NES interaction by ITC. Isothermal titration of CRM1^HA with TFP-mutE(NES). […] The titration of negative control TFP-Cter (180 μM) onto CRM1^HA (14 μM) (circles) is also shown for comparison.

CRM1^HA [2] = target: T1, CRM1^HA; experiment: Fluorescence anisotropy binding assay, CRM1^HA; conditions: 0–60 μM CRM1^HA, 25°C
Method: Fluorescence anisotropy binding assays
To estimate CRM1 binding affinities for NES motifs we monitored binding with a fluorescence-polarization assay based on previously described approaches. The increase in fluorescence anisotropy of TFP/YFP when the TFP/YFP-NES construct (50 nM) binds to 0–60 μM CRM1 (either CRM^HA or wild type) was recorded at 25°C with a 8100 SLM-Aminco spectrofluorometer in buffer 20 mM Tris/HCl, pH 7.4, 50 mM NaCl, 5 mM DTT, 2 mM MgCl2. Excitation and emission wavelengths were 463, 500 nm for TFP and 463, 533 nm for YFP, and slits width 4 and 8 nm, respectively.
Fig 4 Binding of CRM1 to TFP-NES constructs. (A) Scheme of the engineered TFP constructs, showing the sequence of the NES motifs. Φ residues are highlighted in red. (B) Titration of CRM1 onto the different TFP constructs (50 nM), at 25°C, in buffer 20 mM Tris/HCl, pH 7.4, 50 mM NaCl, 5 mM DTT, 2 mM MgCl2: Left panel: Binding of CRM1^HA (solid symbols) or wild type CRM1 (empty symbols) to TFP-PKI(NES). Right panel: Binding of CRM1^HA to TFP-mutE(NES) (triangles) and TFP-mutA(NES) (squares). Fraction bound was calculated from the relative increase in fluorescence anisotropy of TFP (λexc 463 nm, λem 500 nm). Error bars correspond to at least three measurements per CRM1 concentration.
We next used the TFP-(NES) constructs to monitor CRM1^HA binding to each motif, using the change in fluorescence anisotropy upon complex formation as a readout (Fig 4B), as previously described. […] The different nature of the fluorescent tag, and/or the linker between the fluorescent protein and the NES (2 residues longer in the YFP-PKI construct) could explain the discrepancy. […] To isolate the CRM1 / NES interaction under study from the influence of the tag protein, we have also conducted binding assays with peptides corresponding to the NES motifs (see below).

Myc-NPM in HEK293T cells = experiment: Localization of Myc-NPM in HEK293T cells; assay type: cell-based, human
Method: (§1) Cell culture, transfection, treatment and imaging
(§2) Human embryonic kidney 293T (HEK293T) and HeLa cells (ECACC) were grown in Dulbecco’s modified Eagle’s medium, supplemented with 10% fetal bovine serum, 100 units/ml penicillin and 100 μg/ml streptomycin (all from Invitrogen). The cells were seeded onto sterile glass coverslips in 12-well trays 24 h before transfection. Transfections were carried out with XtremeGENE 9 (Roche) following the manufacturer’s protocol. Treatment of cells with the different drugs was done at the indicated final concentrations and time periods: Actinomycin D (ActD, Sigma) at 5 μg / mL for 3 h, and hydroxyurea (HU, Sigma) at 4 mM for 24 h.
Cells were fixed, either 20 or 42 h after transfection, with 3.7% formaldehyde in PBS for 30 min, then treated with 0.2% Triton X-100 in PBS for 10 min, for membrane permeabilization and incubated for 1 h in blocking solution (3% BSA in PBS). In YFP-CRM1 overexpression experiments, endogenous NPM was detected with anti-B23 (Santa Cruz Biotechnology FC82291, dilution 1:800), Myc3-NPM with anti-Myc (Cell Signalling 2276, dilution 1:2000) and Flag-SurvNLS with anti-Flag (Sigma F1704, dilution 1:300). Primary antibodies were diluted in blocking solution. In all cases, the secondary antibody was Alexa Fluor 594 anti-mouse (Invitrogen A11005, dilution 1:400). […] Slides were examined using a Zeiss Axioskop fluorescence microscope. […]

[3] = test system: endogenous NPM in HEK293T cells; experiment: Localization of endogenous NPM in HEK293T cells; assay type: cell-based, human
Method: as §1, §2
Cells were fixed, either 20 or 42 h after transfection, with 3.7% formaldehyde in PBS for 30 min, then treated with 0.2% Triton X-100 in PBS for 10 min, for membrane permeabilization and incubated for 1 h in blocking solution (3% BSA in PBS). In YFP-CRM1 overexpression experiments, endogenous NPM was detected with anti-B23 (Santa Cruz Biotechnology FC82291, dilution 1:800), Myc3-NPM with anti-Myc (Cell Signalling 2276, dilution 1:2000) and Flag-SurvNLS with anti-Flag (Sigma F1704, dilution 1:300). Primary antibodies were diluted in blocking solution. In all cases, the secondary antibody was Alexa Fluor 594 anti-mouse (Invitrogen A11005, dilution 1:400). Washing between the different steps were carried out with PBS. […] Slides were examined using a Zeiss Axioskop fluorescence microscope. For quantification, at least 200 cells were “blind counted” and classified as having nuclear (or nucleolar), nuclear/cytoplasmic or cytoplasmic localization of NPM (or the Flag-SurvNLS control). […]
Fig 2 Localization of endogenous and ectopically expressed NPM and effect of treatment with actinomycin D (ActD) and CRM1 overexpression in HEK293T cells. […] Green denotes YFP (Y) or YFP-CRM1 (YC) fluorescence; red, immunostaining of endogenous NPM; and blue, DAPI fluorescence. […] More than 200 cells were “blind” counted. […] (D) Quantification of cytoplasmic (C) or nuclear and cytoplasmic (N/C) localization of overexpressed Flag-SurvNLS and Myc-NPM. […]

[4] = TFP/YFP-NES construct 50 nM, 20 mM Tris/HCl pH 7.4, 50 mM NaCl, 5 mM DTT, 2 mM MgCl2, at least three measurements per CRM1 concentration, read-out: apparent KD (C50)
[5] = ITC, NES ligand (35–180 μM) titrated onto CRM1^HA (2–14 μM), 20°C, 20 mM HEPES pH 7.4, 50 mM NaCl, 1 mM TCEP, 1 mM MgCl2, independent binding sites model, read-out: KD

Molecule: DLWQSLAQVSLRK [TFP-mutE(NES), NES of NPM mutant E as C-terminal fusion to teal fluorescent protein]
Kd (CRM1^HA [2]; TFP-NES 50 nM, pH 7.4, rounded, read-out: apparent KD): 2200 nM
Kd (CRM1^HA [2]; [4]): 2160 ± 556 nM
Kd (CRM1^HA [1]; [5]): 1040 ± 41 nM
ΔH (CRM1^HA [1]; ITC, NES ligand titrated onto CRM1^HA, 20°C, 20 mM HEPES pH 7.4): -15.4 ± 3.1 kcal/mol
-TΔS (CRM1^HA [1]; ITC, NES ligand titrated onto CRM1^HA, 20°C, 20 mM HEPES pH 7.4, from ΔG = ΔH − TΔS): 7.4 ± 3.1 kcal/mol
n (binding stoichiometry) (CRM1^HA [1]; ITC, NES ligand titrated onto CRM1^HA, 20°C, 20 mM HEPES pH 7.4, low n of peptides might result from limited solubility): 0.80 ± 0.19
ΔG (CRM1^HA [1]; ITC, NES ligand titrated onto CRM1^HA, 20°C, 20 mM HEPES pH 7.4, ΔG = -RTlnKA): -8.0 ± 0.0 kcal/mol
Kd (CRM1^HA [1]; ITC, TFP-NES titrated onto CRM1^HA, 20°C, 20 mM HEPES pH 7.4, rounded, read-out: KD): 1000 nM

Molecule: 94–102: candidate NES motif in the core domain of NPM (ITPPVVLRL; UniProt P06748 94-102, looked up, fragment)
NES export activity in cells (nuclear export): border-line activity

Molecule: Ac-EAIQDLCLAVEEVSLRK [peptide AL]
Kd (CRM1^HA [1]): 57 ± 10 nM

Molecule: Cc1c2oc3c(C)ccc(C(=O)N[C@@H]4C(=O)N[C@H](C(C)C)C(=O)N5CCC[C@H]5C(=O)N(C)CC(=O)N(C)[C@@H](C(C)C)C(=O)O[C@@H]4C)c3nc-2c(C(=O)N[C@@H]2C(=O)N[C@H](C(C)C)C(=O)N3CCC[C@H]3C(=O)N(C)CC(=O)N(C)[C@@H](C(C)C)C(=O)O[C@@H]2C)c(N)c1=O [ActD, actinomycin D] (I: T[dV]P[Sar][NMeV] / II: T[dV]P[Sar][NMeV]; ester I:1-I:C, II:1-II:C; linker I:N-II:N via Actinocin(9to1))
cells with nuclear/cytoplasmic localization of Myc-NPM (Myc-NPM in HEK293T cells; YFP-CRM1 co-expression and ActD (5 μg/mL, 3 h), >200 cells counted): 33%
cytoplasmic localization of endogenous NPM ([3]; HEK293T expressing YFP-CRM1, ActD 5 μg/mL 3 h where ActD): a further increase was observed
nuclear/cytoplasmic localization of endogenous NPM ([3]; YFP-transfected HEK293T, ActD 5 μg/mL 3 h, no CRM1 overexpression): does not affect, however, the amount of cells displaying nuclear/cytoplasmic localization of NPM

Molecule: residues 42–49: candidate NES motif in the core domain of NPM (LSLRTVSL; UniProt P06748 42-49, looked up, fragment)
NES export activity in cells (nuclear export): border-line activity

Molecule: DLWQWRKSL [TFP-Cter, negative control construct containing the last 9 C-terminal residues of wild type NPM]
binding response (CRM1^HA [1]; ITC, 20°C, 20 mM HEPES pH 7.4): small exothermic peaks (Fig 5), which may reflect a non-specific binding

Molecule: NC(=O)NO [HU, hydroxyurea]
cells with cytoplasmic relocation of Myc-NPM, YFP-CRM1 co-expression with HU (Myc-NPM in HEK293T cells; YFP-CRM1 co-expression, hydroxyurea 4 mM 24 h (increase from 20%)): 50%
effect of HU on endogenous NPM localization ([3]; hydroxyurea 4 mM 24 h (data not shown)): could not be observed on endogenous NPM

More lines, main results first:

relative affinity for CRM1^HA, mutant E NES vs mutant A NES (CRM1^HA [1]; anisotropy, ITC with TFP constructs and ITC with untagged peptides): approximately double that of mutant A
Molecule: DLWQSLAQVSLRK [mutE(NES), acquired NES motif of AML-associated NPM mutant E]
NES export activity in cells (nuclear export): much higher than that of mutant A NES, and comparable to the export activity of PKI(NES)

binding response (CRM1^HA [1]; ITC, 20°C, 20 mM HEPES pH 7.4): showed no binding in our conditions
Molecule: QDLCLAVEEVSLRK [peptide AS, short version of the NES motif of mutant A]

Kd (CRM1^HA [1]; [5]): 31 ± 1 nM
Molecule: Ac-EAIQDLWQSLAQVSLRK [peptide EL]

Kd (CRM1^HA [1]; [5]): 76 ± 1 nM
Molecule: Ac-QDLWQSLAQVSLRK [peptide ES]

Kd (CRM1^HA [2]; [4]): 579 nM
Molecule: LALKLAGLDI [PKI(NES), in b48 the value is that of TFP-PKI(NES), reference compound]
